Results taken from the supplement of paper PMC11061612.

Key:
[1] = system: 769-P (Kidney Carcinoma); test: Bliss excess, mean over the matrix (fraction); higher = more synergy
How it was run: (§1)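 After 24 hours at 37°C and 5% CO2 in 1536-well plates, cells in DMEM/F12 or RPMI plus 10% FBS received two-drug dose matrices for 72 hours. Viability came from CellTiter-Glo 2.0 luminescence and was scaled as inhibition, anchored at 0 by vehicle wells and at 1 by blank wells. Combination Emax is taken as the second-highest inhibition in the matrix, and Bliss excess as the observed combination effect less EA + EB − EA·EB, with EA and EB the single-agent effects.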

[2] = system: huH-1 (Hepatocellular Carcinoma); test: as above
How it was run: as §1

[3] = system: KYSE-140 (Esophageal Squamous Cell Carcinoma); test: as above
How it was run: as §1

[4] = system: SK-HEP-1 (Hepatocellular Carcinoma); test: as above
How it was run: as §1

[5] = system: SW620 (Colorectal Carcinoma); test: as above
How it was run: as §1

[6] = system: Jurkat (T-Lymphoblastic Leukemia); test: combination Emax (second highest fraction inhibited in the dose matrix, 72 h); higher = more inhibition; extreme values may be limits of the assay
How it was run: as §1

[7] = system: GCT (Other Solid Carcinomas); test: as above
How it was run: as §1

[8] = system: HCC70 (Breast Carcinoma); test: as above
How it was run: as §1

[9] = system: NCI-H1651 (Lung Adenocarcinoma); test: as above
How it was run: as §1

[10] = system: CAL-27 (Oral Cavity Carcinoma); test: as above
How it was run: as §1

[11] = system: NCI-H2087 (Lung Adenocarcinoma); test: as above
How it was run: as §1

[12] = system: NCI-H2228 (Lung Adenocarcinoma); test: as above
How it was run: as §1

[13] = system: JHU-022 (Oral Cavity Carcinoma); test: as above
How it was run: as §1

[14] = system: JIMT-1 (Breast Carcinoma); test: as above
How it was run: as §1

[15] = system: WM1552C (Melanoma); test: as above
How it was run: as §1

[16] = system: AU565 (Breast Carcinoma); test: as above
How it was run: as §1

[17] = system: A253 (Head and Neck Carcinoma); test: as above
How it was run: as §1

[18] = system: NB13 (Neuroblastoma); test: as above
How it was run: as §1

[19] = system: CESS (Acute Myeloid Leukemia); test: as above
How it was run: as §1

[20] = system: 22RV1 (Prostate Carcinoma); test: as above
How it was run: as §1
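For Bliss excess, mean over the matrix in this document: after 72 h of two-drug dosing.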

Row | SMILES | Bliss excess [1] | Bliss excess [2] | Bliss excess [3] | Bliss excess [4] | Bliss excess [5] | combination Emax [6] | combination Emax [7] | combination Emax [8] | combination Emax [9] | combination Emax [10] | combination Emax [11] | combination Emax [12] | combination Emax [13] | combination Emax [14] | combination Emax [15] | combination Emax [16] | combination Emax [17] | combination Emax [18] | combination Emax [19] | combination Emax [20]
1 | NC1(C(=O)N[C@@H](CCO)c2ccc(Cl)cc2)CCN(c2ncnc3[nH]ccc23)CC1 [Capivasertib] + COc1nnc2ccc(N3CCC(c4ccc(OCCN5CCN(C)C(=O)[C@H]5C)cc4)CC3)nn12 [AZD5153] (first compound max 10 µM, 7x7, partner max 1 µM) | 0.055 | 0.0064 | 0.0298 | -0.0784 | 0.0026 | 0.992 | 0.695 | 0.876 | 0.0984 | 0.833 | 0.301 | 0.52 | 0.486 | 0.446 | 0.555 | 0.664 | 0.75 | 0.775 | 0.747 | 0.649
2 | CC1(C)CCC(CN2CCN(c3ccc(C(=O)NS(=O)(=O)c4ccc(NCC5CCOCC5)c([N+](=O)[O-])c4)c(Oc4cnc5[nH]ccc5c4)c3)CC2)=C(c2ccc(Cl)cc2)C1 [Venetoclax] + C1CN(CCC1(C(=O)N[C@@H](CCO)C2=CC=C(C=C2)Cl)N)C3=NC=NC4=C3C=CN4 [Capivasertib] (first compound max 1 µM, 7x7, partner max 3 µM) | -0.0433 | -0.0411 | -0.018 | -0.0525 | -0.0511 | 0.639 | 0.426 | 0.686 | 0.159 | 0.261 | 0.123 | 0.405 | 0.359 | 0.188 | 0.469 | 0.46 | 0.463 | 0.465 | 0.467 | 0.484
3 | Cc1c2c(nn1C)CSCc1cc(n(C)n1)CSc1cc(c3ccccc3c1)OCCCc1c(C(=O)O)n(C)c3c-2c(Cl)ccc13 [AZD5991] + CN(C)CCCOc1ccc(-c2ccc3ncc4c(c3c2)n(C2CCOCC2)c(=O)n4C)cn1 [AZD0156] (first compound max 1 µM, 7x7, partner max 1 µM) | -0.0089 | -0.0069 | -0.0063 | 0.0098 | 0.0345 | 0.928 | 0.502 | 0.86 | 0.212 | 0.958 | 0.201 | 0.307 | 0.172 | 0.225 | 0.76 | 1 | 0.908 | 0.282 | 0.233 | 0.476
4 | COc1nnc2ccc(N3CCC(c4ccc(OCCN5CCN(C)C(=O)[C@H]5C)cc4)CC3)nn12 [AZD5153] + C[C@@H]1COCCN1C2=NC(=NC(=C2)C3(CC3)[S@](=N)(=O)C)C4=C5C=CNC5=NC=C4 [AZD6738] (first compound max 1 µM, 7x7, partner max 10 µM) | 0.0196 | 0.031 | -0.0968 | -0.0522 | 0.0276 | 0.985 | 0.6 | 0.659 | 0.767 | 0.659 | 0.728 | 0.594 | 0.563 | 0.77 | 0.546 | 0.502 | 0.736 | 0.917 | 0.905 | 0.645
5 | CC(=O)Nc1cccc(-n2c(=O)n(C3CC3)c(=O)c3c(Nc4ccc(I)cc4F)n(C)c(=O)c(C)c32)c1 [Trametinib] + Cc1nc(-c2cn3c(n2)-c2ccc(-c4cnn(C(C)(C)C(N)=O)c4)cc2OCC3)n(C(C)C)n1 [Taselisib] (first compound max 1 µM, 7x7, partner max 10 µM) | 0.0182 | 0.195 | -0.0046 | 0.0781 | 0.0527 | 0.692 | 0.764 | 1 | 0.285 | 0.946 | 0.639 | 0.914 | 0.903 | 0.631 | 0.908 | 0.604 | 0.954 | 0.428 | 0.66 | 0.704
6 | COc1cccc(OCCCN)c1-c1cc(Nc2cnc(C#N)cn2)n[nH]1 [Prexasertib] + C[C@@H]1COCCN1C2=NC(=NC(=C2)C3(CC3)[S@](=N)(=O)C)C4=C5C=CNC5=NC=C4 [AZD6738] (first compound max 1 µM, 7x7, partner max 10 µM) | 0.0022 | -0.0716 | -0.0191 | 0.0447 | 0.013 | 0.992 | 0.315 | 0.908 | 0.722 | 0.504 | 0.797 | 0.643 | 0.627 | 0.857 | 0.743 | 0.633 | 0.846 | 0.943 | 0.978 | 0.655
7 | COc1nnc2ccc(N3CCC(c4ccc(OCCN5CCN(C)C(=O)[C@H]5C)cc4)CC3)nn12 [AZD5153] + Cn1cnc2c(F)c(Nc3ccc(Br)cc3Cl)c(C(=O)NOCCO)cc21 [Selumetinib] (first compound max 1 µM, 7x7, partner max 10 µM) | -0.0261 | -0.0102 | -0.028 | -0.0764 | -0.0083 | 0.594 | 0.59 | 0.584 | 0.138 | 0.795 | 0.631 | 0.428 | 0.508 | 0.426 | 0.514 | 0.328 | 0.456 | 0.565 | 0.606 | 0.555
8 | Cc1c2c(nn1C)CSCc1cc(n(C)n1)CSc1cc(c3ccccc3c1)OCCCc1c(C(=O)O)n(C)c3c-2c(Cl)ccc13 [AZD5991] + C[C@@H]1COCCN1C2=NC(=NC(=C2)C3(CC3)[S@](=N)(=O)C)C4=C5C=CNC5=NC=C4 [AZD6738] (first compound max 1 µM, 7x7, partner max 10 µM) | -0.0333 | -0.0302 | 0.0119 | 0.0225 | 0.0191 | 0.974 | 0.411 | 0.967 | 0.714 | 1 | 0.588 | 0.433 | 0.492 | 0.723 | 0.836 | 1 | 0.976 | 0.952 | 0.958 | 0.71
9 | CC1(C)CCC(CN2CCN(c3ccc(C(=O)NS(=O)(=O)c4ccc(NCC5CCOCC5)c([N+](=O)[O-])c4)c(Oc4cnc5[nH]ccc5c4)c3)CC2)=C(c2ccc(Cl)cc2)C1 [Venetoclax] + C=CCn1c(=O)c2cnc(Nc3ccc(N4CCN(C)CC4)cc3)nc2n1-c1cccc(C(C)(C)O)n1 [AZD1775] (first compound max 1 µM, partner max 1 µM) | -0.0081 | -0.066 | -0.0037 | -0.0252 | -0.0536 | 0.907 | 0.431 | 0.805 | 0.589 | 0.328 | 0.401 | 0.494 | 0.388 | 0.573 | 0.785 | 0.672 | 0.313 | 0.928 | 0.966 | 0.513
10 | COc1nnc2ccc(N3CCC(c4ccc(OCCN5CCN(C)C(=O)[C@H]5C)cc4)CC3)nn12 [AZD5153] + Cc1c2c(nn1C)CSCc1cc(n(C)n1)CSc1cc(c3ccccc3c1)OCCCc1c(C(=O)O)n(C)c3c-2c(Cl)ccc13 [AZD5991] (first compound max 1 µM, 7x7, partner max 1 µM) | -0.0716 | 0.0196 | -0.124 | -0.085 | -0.0457 | 1 | 0.6 | 0.96 | 0.515 | 1 | 0.453 | 0.372 | 0.417 | 0.611 | 0.888 | 1 | 0.816 | 0.907 | 0.76 | 0.857
11 | Cc1c2c(nn1C)CSCc1cc(n(C)n1)CSc1cc(c3ccccc3c1)OCCCc1c(C(=O)O)n(C)c3c-2c(Cl)ccc13 [AZD5991] + CC1(C)CCC(CN2CCN(c3ccc(C(=O)NS(=O)(=O)c4ccc(NCC5CCOCC5)c([N+](=O)[O-])c4)c(Oc4cnc5[nH]ccc5c4)c3)CC2)=C(c2ccc(Cl)cc2)C1 [Venetoclax] (first compound max 1 µM, 7x7, partner max 1 µM) | -0.0328 | -0.0534 | 0.0154 | -0.0098 | -0.037 | 0.888 | 0.288 | 0.938 | 0.213 | 0.955 | 0.153 | 0.184 | 0.116 | 0.215 | 0.735 | 1 | 0.868 | 0.546 | 0.525 | 0.462
12 | CC(=O)c1c(C)c2cnc(Nc3ccc(N4CCNCC4)cn3)nc2n(C2CCCC2)c1=O [Palbociclib] + Cc1c2c(nn1C)CSCc1cc(n(C)n1)CSc1cc(c3ccccc3c1)OCCCc1c(C(=O)O)n(C)c3c-2c(Cl)ccc13 [AZD5991] (first compound max 10 µM, 7x7, partner max 1 µM) | -0.004 | -0.0422 | -0.0814 | 0.0434 | -0.0292 | 0.883 | 0.395 | 0.867 | 0.143 | 0.914 | 0.218 | 0.247 | 0.167 | 0.179 | 0.638 | 0.998 | 0.635 | 0.389 | 0.669 | 0.503
13 | CC1(C)CCC(CN2CCN(c3ccc(C(=O)NS(=O)(=O)c4ccc(NCC5CCOCC5)c([N+](=O)[O-])c4)c(Oc4cnc5[nH]ccc5c4)c3)CC2)=C(c2ccc(Cl)cc2)C1 [Venetoclax] + Cn1cnc2c(F)c(Nc3ccc(Br)cc3Cl)c(C(=O)NOCCO)cc21 [Selumetinib] (first compound max 1 µM, 7x7, partner max 3 µM) | -0.004 | -0.0539 | -0.0042 | -0.0378 | -0.0414 | 0.277 | 0.289 | 0.591 | 0.0964 | 0.466 | 0.378 | 0.185 | 0.42 | 0.14 | 0.488 | 0.201 | 0.185 | 0.183 | 0.319 | 0.368
